Measurements taken from patent publication US8946201B2, “Methods for inhibiting TGF-β” (Saint Louis University, priority 2007, dated 2015).

How the values were obtained:
[1] = test system: TβR-I and TβR-II; experiment: 125I-TGF-β1 affinity labeling, CHO-K1 cells; assay type: cell-based, Chinese hamster; conditions: 1 μM, 37° C. 16 hr, 0.12 untreated
Procedure: (§1) (A, B, C, D, E, F) Cells were treated with LDL (50 μg protein/ml), VLDL (5 μg protein/ml), HDL (50 μg protein/ml), lipoprotein (a) (10 μg/ml), fluvastatin (F; 1 μM), lovastatin (L; 1 μM), nystatin (Nys; 25 μg/ml), β-CD (β-CD; 8 mM), cholest-4-en-3-one (3-one; 50 μg/ml) or cholesterol (Chol; 50 μg/ml) alone or combination of two. After 1 hr at 37° C. or 16 hr at 37° C. (for fluvastatin and lovastatin), ^125I-TGF-β1 affinity labeling of cell-surface TGF-β receptors was performed at 0° C. ^125I-TGF-β1 affinity-labeled TβR-I and TβR-II were analyzed by 7.5% SDS-PAGE and autoradiography. The relative intensities of TβR-I and TβR-II were quantified with a PhosphoImager. The ratio of ^125I-TGF-β1 binding to TβR-II and TβR-I were estimated. The numbers above the lane sequence denote the ratio of TβR-II/TβR-I.
After cross-linking, cell lysates were analyzed by 7.5% SDS-PAGE and autoradiography or quantified by a PhosphoImager. For all experiments, cholesterol or cholesterol derivatives were prepared as the stock solution with a concentration of 25 mg/ml in ethanol. The final concentration of ethanol in the medium was 0.2% (by vol.). […]

[2] = test system: TβR-I and TβR-II; experiment: 125I-TGF-β1 affinity labeling, Mv1Lu cells; assay type: cell-based, mink; conditions: 1 μM, 37° C. 16 hr; Mv1Lu cells; 0.88 untreated
Procedure: (A) Mv1Lu cells were treated with 50 μg/ml cholesterol at 37° C. After several time periods, as indicated, ^125I-TGF-β1-affinity labeling was performed at 0° C. ^125I-TGF-β1 affinity-labeled TGF-β receptors were analyzed by 7.5% SDS-PAGE and autoradiography (a) and quantified with a PhosphoImager. The bracket indicates the locations of ^125I-TGF-β1 affinity-labeled TβR-I and TβR-II. The ratio of ^125I-TGF-β1 binding to TβR-II and TβR-I is plotted against incubation time (b).
(§2) (B, C, D, E) Cells were treated with increasing concentrations of cholesterol in the presence (C) and absence (B, D, E) of 0.2% β-CD, as indicated. After 1 hr at 37° C., ^125I-TGF-β1 affinity labeling of TβR-I and TβR-II in cells was performed at 0° C. ^125I-TGF-β1 affinity-labeled TβR-I and TβR-II were analyzed by 7.5% SDS-PAGE and autoradiography or quantified with a PhosphoImager. A representative of a total of three analyses is shown (top). The bracket indicates the locations of ^125I-TGF-β affinity-labeled TβR-I and TβR-II. The relative intensities of ^125I-TGF-β1 affinity-labeled TβR-I and TβR-II in cells treated without cholesterol were taken as 100%. The quantitative data from three analyses is shown (bottom).
The bracket indicates the locations of ^125I-TGF-β1 affinity-labeled TβR-I and TβR-II. The relative intensities of ^125I-TGF-β1-TβR-I and ^125I-TGF-β1-TβR-II complexes, which were quantified with a PhosphoImager, are plotted against TGF-β1 concentrations (bottom).
as §1
(G) Mv1Lu cells were treated with 50 μg/ml of cholesterol and cholesterol analogs/derivatives including 25-hydroxycholesterol, 7-dehydrocholesterol (7-DHC), 7-ketocholesterol, 7β, 8β-epoxycholesterol, 7β-hydroxycholesterol, and oxidized 7-dehydrocholesterol (oxy-7DHC). After 1 hr at 37° C., ^125I-TGF-β1 affinity labeling of TGF-β receptors was performed. ^125I-TGF-β1 affinity-labeled TβR-I and TβR-II were analyzed by 7.5% SDS-PAGE and autoradiography. The bracket indicates the locations of ^125I-TGF-β1-affinity-labeled TβR-I and TβR-II. The relative intensities of ^125I-TGF-β1 affinity-labeled TβR-I and TβR-II were determined by a PhosphoImager. The ratios of ^125I-TGF-β1 binding to TβR-II and TβR-I were estimated. The numbers above the lane sequence denote the ratio of TβR-II/TβR-I.
(§3) After cross-linking, cell lysates were analyzed by 7.5% SDS-PAGE and autoradiography or quantified by a PhosphoImager. For all experiments, cholesterol or cholesterol derivatives were prepared as the stock solution with a concentration of 25 mg/ml in ethanol. The final concentration of ethanol in the medium was 0.2% (by vol.).

[3] = test system: PAI-1 expression; experiment: TGF-β1-induced PAI-1 expression, Northern blot, Mv1Lu cells; assay type: cell-based, mink; conditions: Mv1Lu cells
Procedure: (A, B, C, D, E, F) Cells were treated with 50 μg/ml cholesterol (A, B, C, D) and 50 μg/ml LDL (D) at 37° C. for 1 hr or with 1 μM fluvastatin or lovastatin (E) or several concentrations of fluvastatin (F) at 37° C. for 16 hr and then further incubated with increasing concentrations (as indicated) of TGF-β1 (A, B, C, E) or 50 pM TGF-β1 (D,F) for 2 hr. Northern blot analysis of PAI-1 and G3PDH was performed. A representative of a total of three analyses is shown (a). The relative intensities of the transcripts were quantified with a PhosphoImager. The ratio of the relative intensities of PAI-1 and G3PDH transcripts in cells treated without TGF-β1 and cholesterol, LDL or statins on the blot was taken as 1 fold or 100% of PAI-1 expression. The quantitative data from three independent analyses is shown (b). […] (G) Mv1Lu cells stably expressing a luciferase reporter gene driven by the PAI-1 promoter (MLECs-clone 32) were treated with increasing concentrations (as indicated) of cholesterol at 37 EC for 1 hr (a) or with 1 μM lovastatin at 37° C. for 16 hr (b) and then further incubated with 50 pM TGF-β for 7 hr. The luciferase activity in cells treated without cholesterol was taken as 100% (a). […] (H) Cells were incubated with 0.0625 and 0.125 pM TGF-β1 in the presence of increasing concentrations of cholesterol, as indicated. […] The experiments were carried out in triplicate.

[4] = test system: TβR-I and TβR-II; experiment: 125I-TGF-β1 affinity labeling, BAEC; assay type: cell-based, bovine; conditions: 1 μM, 37° C. 16 hr; BAEC cells; 2.47 untreated
Procedure: as §2, §1, §3

[5] = test system: TβR-I and TβR-II; experiment: Western blot of TβR-I and TβR-II protein levels, Mv1Lu cells; assay type: cell-based, mink; conditions: 37° C. for 16 hr; versus cholesterol-treated and control cells
Procedure: Cells grown to near confluence on 12-well cluster dishes were treated with cholesterol or LDL in serum-free DMEM (vol.=0.5 ml/well) at 37° C. for 1 hr. The treated cells were further incubated with 50 or 100 pM TGF-β1 at 37° C. for 30 min (for determining Smad2 phosphorylation) or for 2 hr (for determining TβR-II). Treated cells were lysed and cell lysates were analyzed by 7.5% SDS-PAGE and Western blot analysis using anti-Smad2, anti-P-Smad2, anti-caveolin-1, anti-TβR-I (alk5) or anti-TβR-II antibodies as described previously (30). The antigens on the blots were visualized by using horseradish peroxidase-conjugated anti-rabbit IgG antibody and the ECL system as described (30).
To determine if cholesterol suppresses TGF-β responsiveness by decreasing the ratio of TGF-β1 binding to TβR-II and TβR-I, we first determined the time course of the effect of cholesterol treatment on the ratio of ^125I-TGF-β1 binding to TβR-II and TβR-I in Mv1Lu cells. These cells were treated with 50 μg/ml cholesterol at 37° C. for several time periods. ^125I-TGF-β1 binding to TGF-β receptors was then determined by affinity labeling using the bifunctional cross-linking agent DSS (disuccinimidyl suberate) followed by 7.5% SDS-PAGE and autoradiography or quantified with a PhosphoImager. […] We then performed analysis of the effect of cholesterol treatment on TGF-β1 binding to TβR-I and TβR-II in several cell types. Mv1Lu, BAEC, and NRK cells were treated for 1 hr with increasing concentrations of cholesterol in the presence and absence of 0.2% β-cyclodextrin (β-CD, which forms water-soluble complexes with cholesterol) at 37° C. The binding of TGF-β1 to TβR-I and TβR-II in these cells was then determined by ^125I-TGF-β1 affinity labeling at 0° C.

CC(C)n1c(/C=C/C(O)CC(O)CC(=O)O)c(-c2ccc(F)cc2)c2ccccc21 (stereo not drawn) [fluvastatin, reference compound]
ratio of TβR-II/TβR-I [1]: 0.19 | ratio of TβR-II/TβR-I [2]: 1.3 | enhancement of PAI-1 expression ([3]; 1 μM, 16 hr, 10 pM TGF-β1): 3 fold | EC50 ([3]; stimulated by 50 pM TGF-β1, read-out: EC50 of enhancement of PAI-1 expression): 500 nM | ratio of TβR-II/TβR-I [4]: 2.91 | increase of the total amount of TβR-II [5]: ~1.5 fold
